For 16 molecules, IC50 results are on record in US11180484B2, “Pyrazole derivatives as plasma kallikrein inhibitors” (KALVISTA PHARMACEUTICALS LIMITED, priority 2016, dated 2021).

Usually IC50 stands for the concentration needed to halve the response being measured.

Common to all, as to format: biochemical
One experiment addresses Human plasma kallikrein (Homo sapiens (Human), UniProt P03952). The experiment can be described thus: Determination of the IC50 for plasma kallikrein. As to conditions: 25° C., substrate H-DPro-Phe-Arg-AFC; read-out: IC50 (human PKal). The protocol:
Human plasma kallikrein (Protogen) was incubated at 25° C. with the fluorogenic substrate H-DPro-Phe-Arg-AFC and various concentrations of the test compound. Residual enzyme activity (initial rate of reaction) was determined by measuring the change in […] at 410 nm and the IC50 value for the test compound was determined.

Another experiment deals with Human KLK1 (Homo sapiens (Human), UniProt P06870). Kind of experiment: Determination of the IC50 for KLK1. The following applies: 25° C., substrate H-DVal-Leu-Arg-AFC. The protocol: Human KLK1 (Callbiochem) was incubated at 25° C. with the fluorogenic substrate H-DVal-Leu-Arg-AFC and various concentrations of the test compound. Residual enzyme activity (initial rate of reaction) was determined by measuring the change in […] at 410 nm and the IC50 value for the test compound was determined.
Chain of Human KLK1 (P06870 25-262): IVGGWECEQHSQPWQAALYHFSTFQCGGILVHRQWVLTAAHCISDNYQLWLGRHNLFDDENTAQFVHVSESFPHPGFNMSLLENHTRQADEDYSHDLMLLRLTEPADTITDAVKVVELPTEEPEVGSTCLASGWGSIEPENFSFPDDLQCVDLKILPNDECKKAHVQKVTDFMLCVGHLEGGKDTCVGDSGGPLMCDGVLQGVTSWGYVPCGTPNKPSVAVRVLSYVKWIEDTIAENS

The next experiment concerns the target Human FXIa (Homo sapiens (Human), UniProt P03951). Kind of experiment: Determination of the % inhibition / IC50 for FXIa. The following applies: 25° C., substrate Z-Gly-Pro-Arg-AFC. The method, then:
FXIa inhibitory activity in vitro was determined using standard published methods (see e.g. Johansen et al., Int. J. Tiss. Reac. 1986, 8, 185; Shori et al., Biochem. Pharmacol., 1992, 43, 1209; Sturzebecher et al., Biol. Chem. Hoppe-Seyler, 1992, 373, 1025). […]

The target in a further experiment is Human Factor XIIa (Homo sapiens (Human), UniProt P00748). Kind of experiment: Factor XIIa inhibitory activity in vitro. The following applies: 25° C., substrate H-DPro-Phe-Arg-AFC; read-out: IC50 (human FXIIa). The protocol:
Human Factor XIIa (Enzyme Research Laboratories) was incubated at 25° C. with the fluorogenic substrate H-DPro-Phe-Arg-AFC and various concentrations of the test compound. Residual enzyme activity (initial rate of reaction) was determined by measuring the change in […] at 410 nm and the IC50 value for the test compound was determined.

The structures appear in SMILES notation.

Chain of Human plasma kallikrein (P03952 391-638): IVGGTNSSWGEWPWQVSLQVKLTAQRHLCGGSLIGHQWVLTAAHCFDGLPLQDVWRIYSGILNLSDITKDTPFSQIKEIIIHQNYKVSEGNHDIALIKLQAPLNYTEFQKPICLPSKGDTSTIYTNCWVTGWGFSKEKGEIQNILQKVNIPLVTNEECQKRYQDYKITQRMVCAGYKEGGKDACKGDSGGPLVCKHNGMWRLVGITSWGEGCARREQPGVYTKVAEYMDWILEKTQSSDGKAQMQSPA
Chain of Human plasma kallikrein (P03952 20-390): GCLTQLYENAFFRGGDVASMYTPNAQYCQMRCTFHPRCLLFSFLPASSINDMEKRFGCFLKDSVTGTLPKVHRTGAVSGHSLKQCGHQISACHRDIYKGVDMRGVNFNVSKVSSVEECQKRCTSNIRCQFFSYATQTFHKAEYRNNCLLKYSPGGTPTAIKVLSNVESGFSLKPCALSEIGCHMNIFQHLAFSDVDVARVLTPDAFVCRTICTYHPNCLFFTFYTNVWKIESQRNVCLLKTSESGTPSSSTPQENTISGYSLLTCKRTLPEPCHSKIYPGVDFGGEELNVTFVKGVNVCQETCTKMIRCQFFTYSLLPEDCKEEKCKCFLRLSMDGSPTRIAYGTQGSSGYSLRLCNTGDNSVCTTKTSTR
Chain of Human FXIa (P03951 388-625): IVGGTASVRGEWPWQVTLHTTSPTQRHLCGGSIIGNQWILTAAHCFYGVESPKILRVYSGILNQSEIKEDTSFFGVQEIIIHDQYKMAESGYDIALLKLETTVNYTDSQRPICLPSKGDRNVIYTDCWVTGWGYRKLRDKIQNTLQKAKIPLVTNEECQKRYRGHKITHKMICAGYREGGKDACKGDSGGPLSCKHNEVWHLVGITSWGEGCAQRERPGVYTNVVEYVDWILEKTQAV
Chain of Human FXIa (P03951 19-387): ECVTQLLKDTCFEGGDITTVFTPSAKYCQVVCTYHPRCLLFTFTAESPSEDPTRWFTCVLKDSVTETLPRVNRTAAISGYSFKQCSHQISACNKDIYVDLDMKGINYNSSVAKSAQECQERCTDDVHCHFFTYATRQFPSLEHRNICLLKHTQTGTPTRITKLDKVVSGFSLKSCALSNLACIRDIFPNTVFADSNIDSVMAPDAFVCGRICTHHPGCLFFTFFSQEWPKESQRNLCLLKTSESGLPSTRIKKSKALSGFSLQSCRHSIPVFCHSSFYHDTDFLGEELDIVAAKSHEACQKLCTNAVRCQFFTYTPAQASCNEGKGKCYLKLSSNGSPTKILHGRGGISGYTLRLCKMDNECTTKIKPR
Chain of Human Factor XIIa (P00748 373-615): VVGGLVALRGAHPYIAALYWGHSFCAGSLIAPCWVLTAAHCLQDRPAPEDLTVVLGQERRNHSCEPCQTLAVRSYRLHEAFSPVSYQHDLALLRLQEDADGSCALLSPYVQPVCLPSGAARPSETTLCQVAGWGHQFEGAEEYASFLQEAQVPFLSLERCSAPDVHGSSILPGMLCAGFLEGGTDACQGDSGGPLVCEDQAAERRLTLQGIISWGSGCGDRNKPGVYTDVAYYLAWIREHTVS

As to `COCc1nn(Cc2ccc(Cn3ccccc3=O)cc2)cc1C(=O)NCc1ncc(Cl)cc1F` [Example 17, N-[(5-chloro-3-fluoropyridin-2-yl)methyl]-3-(methoxymethyl)-1-({4-[(2-oxopyridin-1-yl)methyl]phenyl}methyl)pyrazole-4-carboxamide], the half-inhibitory concentration (IC50) at Human plasma kallikrein was 0.143 µM; on Human KLK1, above 40 µM; on Human FXIa, above 40 µM; at Human Factor XIIa, above 40 µM.
For `COCc1nn(Cc2ccc(Cn3ccccc3=O)cc2)cc1C(=O)NCc1cccc(OC)c1C#N` [Example 38, N-[(2-cyano-3-methoxyphenyl)methyl]-3-(methoxymethyl)-1-({4-[(2-oxopyridin-1-yl)methyl]phenyl}methyl)pyrazole-4-carboxamide], the 50% inhibitory concentration (IC50) was 0.301 µM on Human plasma kallikrein, above 4 µM against Human KLK1, above 40 µM at Human FXIa and above 4 µM at Human Factor XIIa.
With `COCc1nn(Cc2ccc(Cn3ccccc3=O)cc2)cc1C(=O)NCc1cc(OC)cc(OC)c1` [Reference Example A, N-(3,5-Dimethoxybenzyl)-3-(methoxymethyl)-1-(4-((2-oxopyridin-1(2H)-yl)methyl)benzyl)-1H-pyrazole-4-carboxamide, reference compound], the half-maximal inhibitory concentration (IC50) at Human KLK1 was above 10 µM; at Human FXIa it was above 40 µM.
With `COCc1nn(Cc2cnc3cc(Cl)ccc3c2)cc1C(=O)NCc1cccc(OC)c1F` [Reference Example C, 1-(7-Chloro-quinolin-3-ylmethyl)-3-methoxymethyl-1H-pyrazole-4-carboxylic acid 2-fluoro-3-methoxy-benzylamide, reference compound], the results for the half-inhibitory concentration (IC50) against Human KLK1 and against Human FXIa were above 10 µM and above 40 µM, respectively.
For `COCc1nn(Cc2ccc(Cn3ccccc3=O)cc2)cc1C(=O)NCc1ncc(F)cc1F` [Example 26, N-[(3,5-difluoropyridin-2-yl)methyl]-3-(methoxymethyl)-1-({4-[(2-oxopyridin-1-yl)methyl]phenyl}methyl)pyrazole-4-carboxamide], the IC50 on Human plasma kallikrein is 1.76 µM; on Human KLK1, above 40 µM; against Human FXIa, above 40 µM; at Human Factor XIIa, above 40 µM.
With `COCc1nn(Cc2ccc(Cn3ccccc3=O)cc2)cc1C(=O)NCc1nn(C)cc1Cl` [Example 34, N-[(4-chloro-1-methylpyrazol-3-yl)methyl]-3-(methoxymethyl)-1-({4-[(2-oxopyridin-1-yl)methyl]phenyl}methyl)pyrazole-4-carboxamide], the IC50 on Human plasma kallikrein is 0.709 µM; on Human KLK1, above 40 µM; on Human FXIa, above 40 µM.
For the molecule `COCc1nn(Cc2ccc(Cn3ccccc3=O)cc2)cc1C(=O)NCc1cc(OC)ncn1` [Example 4, 3-(methoxymethyl)-N-[(6-methoxypyrimidin-4-yl)methyl]-1-({4-[(2-oxopyridin-1-yl)methyl]phenyl}methyl)pyrazole-4-carboxamide], the IC50 is 2.3 µM on Human plasma kallikrein, above 4 µM on Human KLK1, above 40 µM against Human FXIa and above 4 µM at Human Factor XIIa.
For the molecule `COCc1nn(Cc2ccc(Cn3ccccc3=O)cc2)cc1C(=O)NCc1cc(OC)n(C)n1` [Example 31, N-[(5-methoxy-1-methylpyrazol-3-yl)methyl]-3-(methoxymethyl)-1-({4-[(2-oxopyridin-1-yl)methyl]phenyl}methyl)pyrazole-4-carboxamide], the IC50 at Human plasma kallikrein was 0.462 µM; on Human KLK1 it was above 40 µM; at Human FXIa it was above 40 µM; at Human Factor XIIa, above 40 µM.
Take `COCc1nn(Cc2ccc(Cn3ccccc3=O)cc2)cc1C(=O)NCc1ncc(C)c(OC)c1C` [Example 11, N-[(4-methoxy-3,5-dimethylpyridin-2-yl)methyl]-3-(methoxymethyl)-1-({4-[(2-oxopyridin-1-yl)methyl]phenyl}methyl)pyrazole-4-carboxamide]: the 50% inhibitory concentration (IC50) at Human plasma kallikrein was 0.035 µM; against Human KLK1 it was above 40 µM; at Human FXIa it was above 40 µM; at Human Factor XIIa it was above 40 µM.
`COCc1nn(Cc2ccc(Cn3ccccc3=O)cc2)cc1C(=O)NCc1ncccc1C#N` [Example 13, N-[(3-cyanopyridin-2-yl)methyl]-3-(methoxymethyl)-1-({4-[(2-oxopyridin-1-yl)methyl]phenyl}methyl)pyrazole-4-carboxamide]: the IC50 on Human plasma kallikrein was 2.95 µM; against Human KLK1 it was above 4 µM; against Human FXIa, above 40 µM; on Human Factor XIIa, above 4 µM.
As to `COCc1nn(Cc2ccc(Cn3ccccc3=O)cc2)cc1C(=O)NCc1cc(OC)ncc1C#N` [Example 8, N-[(5-cyano-2-methoxypyridin-4-yl)methyl]-3-(methoxymethyl)-1-({4-[(2-oxopyridin-1-yl)methyl]phenyl}methyl)pyrazole-4-carboxamide], the half-maximal inhibitory concentration (IC50) on Human plasma kallikrein is 0.162 µM; against Human KLK1, above 4 µM; against Human FXIa, above 40 µM; at Human Factor XIIa, above 4 µM.
With `COCc1nn(Cc2ccc(Cn3ccccc3=O)cc2)cc1C(=O)NCc1ncc(Cl)cc1C#N` [Example 16, N-[(5-chloro-3-cyanopyridin-2-yl)methyl]-3-(methoxymethyl)-1-({4-[(2-oxopyridin-1-yl)methyl]phenyl}methyl)pyrazole-4-carboxamide], the IC50 was 0.187 µM at Human plasma kallikrein, above 40 µM against Human KLK1, above 40 µM against Human FXIa and above 40 µM on Human Factor XIIa.
As to `COCc1nn(Cc2ccc(Cn3ccccc3=O)cc2)cc1C(=O)NCc1c(F)ccc(OC)c1C(F)F` [Reference Example F, 3-Methoxymethyl-1-[4-(2-oxo-2H-pyridin-1-ylmethyl)-benzyl]-1H-pyrazole-4-carboxylic acid 2-difluoromethyl-6-fluoro-3-methoxy-benzylamide, reference compound], the 50% inhibitory concentration (IC50) at Human FXIa is above 40 µM.
Regarding `COCc1nn(Cc2ccc(Cn3ccccc3=O)cc2)cc1C(=O)NCc1nccc(OC)c1F` [Reference Example D, 3-Methoxymethyl-1-[4-(2-oxo-2H-pyridin-1-ylmethyl)-benzyl]-1H-pyrazole-4-carboxylic acid (3-fluoro-4-methoxy-pyridin-2-ylmethyl)-amide, reference compound], the IC50 against Human KLK1, on Human FXIa and at Human Factor XIIa was above 40 µM throughout.
As to `COc1cccc(CNC(=O)c2cn(Cc3ccc(N4CCCC4)nc3)nc2C(F)(F)F)c1F` [Reference Example G, 1-(6-Pyrrolidin-1-yl-pyridin-3-ylmethyl)-3-trifluoromethyl-1H-pyrazole-4-carboxylic acid 2-fluoro-3-methoxy-benzylamide, reference compound], the IC50 was above 10 µM at Human KLK1 and above 40 µM against Human FXIa.
As to `COCc1nn(Cc2ccc(Cn3ccccc3=O)cc2)cc1C(=O)NCc1c(C#N)ccc(OC)c1F` [Reference Example E, 3-Methoxymethyl-1-[4-(2-oxo-2H-pyridin-1-ylmethyl)-benzyl]-1H-pyrazole-4-carboxylic acid 6-cyano-2-fluoro-3-methoxy-benzylamide, reference compound], the half-inhibitory concentration (IC50) against Human FXIa and at Human Factor XIIa was above 40 µM each time.
